Measurements: patent US6812218B2, “Lipid derivatives of polythiourea” (Gencell S.A., priority 2001, dated 2004)

What was measured:
[1] = system: plasmid pXL3031; experiment: ethidium bromide fluorescence test of nucleic acid compaction; assay type: binding; conditions: conditions identical to the DT-3TU mixtures, 150 mM sodium chloride
Experimental: In the text which follows, the nucleic acid used was the plasmid pXL3031 described in the publication Gene Therapy (1999) 6, pp. 1482-1488, which contained the luc gene encoding luciferase under the control of the cytomegalovirus CMV E/P promoter. This plasmid is represented in FIG. 7. Its size is 3671 bp. The plasmid solution used was diluted to 1.262 g/l in water for injection.
(§1) The nucleic acid was brought into contact with increasing quantities of DT-3TU (12), by equivolumetric mixing of lipid solutions of various titers in the solutions of nucleic acid. Samples of 800 μl of nucleic acid complexes with a concentration of 0.01 μg/ml were thus prepared in a 150 mM sodium chloride solution with increasing quantities of DT-3TU (12).
as §1, with “In the same manner, a control was prepared by bringing the” for “The”, “acid” for “acid was brought”, “EPC (see FIG. 1) or of DPPC (see FIG. 2),” for “DT-3TU (12),”, “[…]” for “μg/ml”, “EPC or of DPPC (FIGS. 1 and 2 respectively).” for “DT-3TU (12).”
The ethidium bromide fluorescence was measured over time (measured at 20° C.) using a FluoroMax-2 (Jobin Yvon-Spex) with excitation and emission wavelengths of 260 nm and 590 nm respectively. […]

[2] = system: tibial and cranial muscles; experiment: in vivo muscle transfection, luciferase expression; parameters: species or system mice C57bl/6; conditions: intramuscular, 3 μg of DNA, 96 hours after injection
Experimental: Muscles samples were taken 96 hours after the injection and the level of expression for luciferase was measured using a luminometer (wallace).
Complexes containing increasing quantities of DT-3TU lipid per μg of DNA were injected in both tibial and cranial muscles of the mice, to which electric pulsations were or were not applied (Bureau, M et al, BBA 2000).
The mice C57bl/6 had undergone previously anaesthetic with a mixture of Ketamin/Xylazine. The injection was or was not followed by the application of transcutaneous electric pulsations using electrodes placed in both ends of the muscle (Bureau, M et al, BBA 2000).
96 hours after the injection, the mice underwent euthanasia, muscles samples were taken and ground in 1 ml buffer lyse solution. After centrifugation (10 min., 12000 rpm, 4° C.), supernatant (10 μl) was taken and placed in a 96 well plate to read the luciferase after adding 50 μl of luciferase substrate. The level of luminescence was read in the supernatant using a luminometer (Wallace, Victor).

[3] = system: HeLa cells; experiment: in vitro transfection, luciferase activity; assay type: cell-based, human; conditions: 10% FCS versus without serum
Experimental: This study was carried out for lipoplexes comprising various quantities of DT-3TU: 1.5 or 5 or 10 or 15 or 20 nmol of DT-3TU/μg of DNA. Each of these conditions was tested with and without fetal calf serum (“+Serum” or “−Serum”).
HeLa cells (American type Culture Collection (ATCC) Rockville, Md., USA) derived from a carcinoma of human cervical epithelium, were cultured in the presence of an MEM (“minimum essential medium”) type medium with addition of 2 mM L-glutamine, 50 units/ml of penicillin and 50 units/ml of streptomycin. The medium and the additives were from Gibco-BRL Life Technologies (Gaithersburg, Md., USA). The cells were cultured in flasks at 37° C. and at 5% carbon dioxide in an incubator.
one day before the transfection, the HeLa cells were transferred into […] with a cell number of 30,000 to 50,000 per well. These dilutions represent approximately 80% confluence after 24 hours. […]
Briefly, the transfected cells were washed twice with 500 μl of PBS (phosphate buffer) and then lysed with 250 μl of reagent (Promega cell culture lysis reagent, of the Luciferase Assay System kit). An aliquot of 10 μl of supernatant of the lysate centrifuged (12,000×g) for 5 minutes at 4° C. was measured with a Wallace Victor 2 luminometer (1420 Multilabel couter). […]

[4] = system: HeLa cells; experiment: toxicity toward the cells, protein level after transfection; assay type: cell-based, human; conditions: lipoplexes with 0.75 to 20 nmol of DT-3TU per μg of DNA
Experimental: The protein level was measured after transfection. The transfection protocol was identical to that described in Example 8.
Briefly, the transfected cells were washed twice with 500 μl of PBS (phosphate buffer) and then lysed with 250 μl of reagent (Promega cell culture lysis reagent, of the Luciferase Assay System kit). An aliquot of 50 μl of supernatant of the lysate centrifuged (12,000×g) for 5 minutes at 4° C. was transferred into a tube in the presence of 50 μl of 0.1 M iodoacetamide, 0.1 M hydrochloric acid tris at pH 8.2 and left for 1 hour at 37° C. 20 μl of the preceding solutions were deposited in a 96-well plate and 200 μl of “BCA protein assay” reagent (Pierce, Montluson, France) were added. The plate was then centrifuged at 2500 revolutions/min and then incubated at 37° C. for 30 minutes. In parallel, a bovine serum albumin (BSA) range was prepared in order to correlate the absorbance value obtained for the samples with a quantity of protein present in the sample.

[5] = size of the lipid/DNA particles; assay type: physicochemical; conditions: without lipid-PEG
Description: The use of cholesterol-PEG in the DT-3TU/DPPC formulations has the advantage of permitting the reduction of the particles to such a quantity of lipid that, in the case of the absence of lipid-PEG, would lead to aggregation. […] In order to obtain particles of this size it is necessary to use at least 40 nmol of the lipid DT-3TU/μg of DNA. Thus, the use of lipid-PEG in the formulations of the lipid DT-3TU has the advantage of reducing the quantity of DT-3TU necessary to compact the DNA and form particles whose size is smaller than 500 nm

SMILES	decrease in fluorescence, lipid alone (control) [1]	level of expression (luciferase) versus background noise of control muscle [2]	transfection of muscle tissues ([2]; 20 and 40 nmol of DT-3TU lipid per μg of DNA, with or without electric pulsations)	effect of the presence of serum on transfection [3]	toxicity toward the cells [4]	quantity of lipid necessary to obtain particles inferior to 500 nm [5]
CCCCCCCCCCCCCCCC(=O)OC[C@H](COP(=O)([O-])OCC[N+](C)(C)C)OC(=O)CCCCCCCCCCCCCCC [DPPC, 1,2-dipalmitoyl-sn-glycero-3-phosphocholine]	about 5%					
CCCCCCCCCCCCCCN(CCCCCCCCCCCCCC)C(=O)CCC(=O)NCCNC(=S)NCCNC(=S)NCCNC(=S)NC [DT-3TU, 3-(2-{3-[2-(3-{2-[3-(ditetradecylcarbamoyl)propionylamino]ethyl}thioureido)ethyl]thioureido}ethyl)-1-methylthiourea]		> 5.0×10^4	significant level of transfection	weak inhibition of transfection	no toxicity was observed	at least 40 nmol of the lipid DT-3TU/μg of DNA
